Assays:
T cells = assay: Anti-inflammatory effect of treated hUC-MSCs on T cells; format: cell-based; conditions: hUC-MSCs treated with 125 or 250 μg/mL AA2G for three days
Method: The inventors observed an effect of the material on stem cells by treating each stem cells with a material for enhancing a glutathione evaluation parameter. When hUC-MSCs were subcultured in a L-AA2G-containing medium, CFU-F, migration capacity, and an anti-inflammatory effect were observed. A CFU-F assay (n=3) was performed by treating hUC-MSCs with 125 or 250 μg/mL of AA2G for three days. As shown in FIGS. 16A and 16B, it was confirmed that, when AA2G was treated, CFU-F increased. In addition, as hUC-MSCs were treated with 125 or 250 μg/mL of AA2G for three days, PDGF-AA-induced migration capacity (n=3) was analyzed. As shown in FIGS. 17A and 17B, it was confirmed that the migration capacity was increased by AA2G treatment. In addition, the reduction in T cell proliferation, the reduction in T cell differentiation, and the promotion of Treg cell differentiation were observed by treating hUC-MSCs with 125 or 250 μg/mL of AA2G for three days.
In addition, hUC-MSCs were cultured with ferrostatin-1 (0.2, 1, 2 and 4 μM) and liproxstatin-1 (0.1, 0.5, 1 and 2 μM), which control a glutathione level in cells by inhibiting lipid oxidation. […] Meanwhile, the hUC-MSCs were treated with 1 μM ferrostatin-1 for 24 hours, 0.2 mM GGC for 2 hours, and 2 mM GSH-EE for 2 hours. As a result, the reduction in T cell proliferation ability and the reduction in T cell differentiation capacity were observed, and promotion of Treg cell differentiation was observed.

hUC-MSCs [1] = assay: FreSH-Tracer-based glutathione regeneration capacity (GRC) in hUC-MSCs; parameters: species or system human; conditions: hUC-MSCs subcultured three times with AA2G 250 μg/mL; low concentration of diamide; compared with naive cell group
Method: (§1) GRC refers to a value obtained by real-time monitoring of FR after living cells are treated with an oxidizing agent, as calculated by dividing a value obtained by subtracting AUC of a group treated with 0.1-100 mM N-ethylmaleimide (NEM) from FR AUC of an oxidizing agent (diamide, H2O2, etc.)-treated group by a value obtained by subtracting the AUC of NEM-treated group from AUC of the untreated control, and multiplying the resulting value by 100. The FR of the NEM-treated group is a value for increasing the sensitivity of a GRC value by treating it as the blank value of the FR of the cells of interest. […] To remove the MitoFreSH-Tracer from the medium before measurement, the medium was exchanged with fresh 10 mM HEPES-containing HBSS(Hanks' Balanced Salt Solution), and a fluorescence image was obtained using a confocal imaging system, Operetta. By comparing GSH levels quantified from control cells not treated with RSL3 or control cells before treated with RSL3, the distribution of GSH expression-changed cells was calculated. Based on the point where the distribution histogram is divided into two peaks, the cells were divided into GSH^High cells (right peak) and GSH^Low cells (left peak), and then a ratio of corresponding cells was expressed as a percentage (%). […]

hUC-MSCs [2] = assay: SDF1α- and PDGF-AA-induced migration capacity of hUC-MSCs; format: cell-based, human; conditions: 125 or 250 μg/mL AA2G for three days, n=3
Method: The inventors observed an effect of the material on stem cells by treating each stem cells with a material for enhancing a glutathione evaluation parameter. When hUC-MSCs were subcultured in a L-AA2G-containing medium, CFU-F, migration capacity, and an anti-inflammatory effect were observed. A CFU-F assay (n=3) was performed by treating hUC-MSCs with 125 or 250 μg/mL of AA2G for three days. As shown in FIGS. 16A and 16B, it was confirmed that, when AA2G was treated, CFU-F increased. In addition, as hUC-MSCs were treated with 125 or 250 μg/mL of AA2G for three days, PDGF-AA-induced migration capacity (n=3) was analyzed. As shown in FIGS. 17A and 17B, it was confirmed that the migration capacity was increased by AA2G treatment. In addition, the reduction in T cell proliferation, the reduction in T cell differentiation, and the promotion of Treg cell differentiation were observed by treating hUC-MSCs with 125 or 250 μg/mL of AA2G for three days. […] Meanwhile, hUC-MSCs were cultured with a glutathione precursor such as γ-glutamyl cysteine (GGC, 0.1, 0.25, and 0.5 mM). […] In addition, SDF1α and PDGF-AA-induced migration capacities (n=3) were analyzed for hUC-MSCs without treatment with GGC, and SDF1α and PDGF-AA-induced migration abilities (n=3) were analyzed by treating hUC-MSCs with the increasing concentrations of GGC. […]

hUC-MSCs [3] = assay: Oxidative stress resistance capacity (ORC) analysis in hUC-MSCs with RSL3; format: cell-based, human; conditions: hUC-MSCs subcultured three times with AA2G 250 μg/mL; compared with naive cell group (NC)
Method: as §1

O=C1O[C@H]([C@@H](O)CO)C(O)=C1O[C@H]1O[C@H](CO)[C@@H](O)[C@H](O)[C@H]1O [AA2G, ascorbic acid 2-glucoside]
T cell differentiation (T cells): reduction | T cell proliferation (T cells): reduction | Treg cell differentiation (T cells): promotion | anti-inflammatory effect of stem cells (T cells): exhibited | FreSH-Tracer-based GRC (hUC-MSCs [1]): increased | PDGF-AA-induced migration capacity (hUC-MSCs [2]): increased | FreSH-Tracer-based ORC (GSH^High cells) (hUC-MSCs [3]): higher

— patent US11499978B2, “Method for measuring quality of therapeutic cell through real-time glutathione measurement” (CELL2IN, INC., priority 2017, dated 2022)
